Laboratory results published in US7560458B2, “Triazolopyrimidine derivatives as glycogen synthase kinase 3 inhibitors” (Janssen Pharmaceutica, N.V., priority 2003, dated 2009).

Assays:
GSK3β = GSK3β (Homo sapiens, UniProt P49841); assay: GSK3beta assay (SPA, biotinylated phosphorylated CREB peptide, ATP-P33); type: biochemical; details: −log IC50 (M); given as ranges (>8; 7-8; <7); read-out: pIC50 (GSK3beta) (converted)
Method: (§1) GSK3beta assays were performed at room temperature in a 100 μl reaction volume of 25 mM Tris (ph 7.4) containing 10 mM MgCl2.6H2O 1 mM DTT, 0.1 mg/ml BSA, 5% glyceol and containing 5.7 ng/μl GSK3β, 5 μM biotinylated phosphorylated CREB peptide, 1 μM APT, 0.85 μCi/ml ATP-P^33 and a suitable amount of a test compound of formula (I). After one hour, the reaction was terminated by adding 70 μl of Stop mix (0.1 mM APT, 5 mg/ml streptavidin coated PVT SPA bead pH 11.0). The beads to which the phosphorylated CREB peptide is attached were allowed to settle overnight and the radioactivity of the beads was counted in a microtiterplate scintillation counter and compared with the results obtained in a control experiment (without the presence of a test compound) in order to determine the percentage of GSK3β inhibition. The IC50 value, i.e. the concentration (M) of the test compound at which 50% of GSK3β is inhibited, was calculated from the dose response curve obtained by performing the above-described GSKK3β assay in the presence of different amounts of the test compound.

GSK3alpha = GSK3alpha (Homo sapiens, UniProt P49840); assay: GSK3alpha assay (same as the GSK3beta assay, GSK3alpha 0.25 ng/μl); type: biochemical; details: −log IC50 (M); given as ranges (>8; 7-8; <7); read-out: pIC50 (GSK3alpha) (converted)
Method: as §1
The GSK3alpha assay was performed in the same way as described above for the GSK3beta assay except for the concentration of GSK3alpha which is 0.25 ng/μl.

Chain of GSK3alpha (P49840 whole entry, species assumed): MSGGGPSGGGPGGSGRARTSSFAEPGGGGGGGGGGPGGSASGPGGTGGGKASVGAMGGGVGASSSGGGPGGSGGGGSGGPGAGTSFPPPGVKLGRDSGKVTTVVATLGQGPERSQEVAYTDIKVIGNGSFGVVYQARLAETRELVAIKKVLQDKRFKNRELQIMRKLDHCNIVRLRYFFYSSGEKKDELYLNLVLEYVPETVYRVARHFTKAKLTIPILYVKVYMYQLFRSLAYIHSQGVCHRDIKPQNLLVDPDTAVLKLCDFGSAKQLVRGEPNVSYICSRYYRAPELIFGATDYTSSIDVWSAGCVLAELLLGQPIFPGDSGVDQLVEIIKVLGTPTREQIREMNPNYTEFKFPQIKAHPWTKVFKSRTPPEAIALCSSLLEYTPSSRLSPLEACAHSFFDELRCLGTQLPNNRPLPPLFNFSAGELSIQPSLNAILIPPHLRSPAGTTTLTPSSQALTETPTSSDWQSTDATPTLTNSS
Chain of GSK3β (P49841 whole entry, species assumed): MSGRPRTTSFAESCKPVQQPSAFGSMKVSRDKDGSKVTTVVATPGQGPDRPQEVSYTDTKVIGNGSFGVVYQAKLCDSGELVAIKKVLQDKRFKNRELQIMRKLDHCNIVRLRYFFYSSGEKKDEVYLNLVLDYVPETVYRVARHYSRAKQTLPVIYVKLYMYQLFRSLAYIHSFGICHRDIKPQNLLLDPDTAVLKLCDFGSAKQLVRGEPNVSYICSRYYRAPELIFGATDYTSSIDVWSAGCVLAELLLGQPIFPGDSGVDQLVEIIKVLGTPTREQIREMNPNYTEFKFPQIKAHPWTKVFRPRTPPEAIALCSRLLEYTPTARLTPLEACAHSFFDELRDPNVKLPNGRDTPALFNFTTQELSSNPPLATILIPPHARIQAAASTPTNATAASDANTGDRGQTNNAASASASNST

Compound	IC50 (GSK3β) [M]	IC50 (GSK3alpha) [M]
O=C(O)Cc1cccc(Nc2ncc3nnn(-c4cccc(F)c4)c3n2)c1 [Compound 25]	1e-08 to 1e-07	< 1e-08
COCCOc1cccc(-n2nnc3cnc(Nc4ccc(CN)cc4)nc32)c1 [Compound 305]	1e-08 to 1e-07	< 1e-08
OCCc1cccc(Nc2ncc3nnn(-c4cccc(F)c4)c3n2)c1 [Compound 150]	< 1e-08	< 1e-08
COCCNS(=O)(=O)c1cccc(Nc2ncc3nnn(-c4cccc(F)c4)c3n2)c1 [Compound 103]	> 1e-09	< 1e-08
O=C(O)c1ccc(Nc2ncc3nnn(-c4cccc(Br)c4)c3n2)cc1 [Compound 124]	< 1e-08	< 1e-08
NC(=O)c1ccc(Nc2ncc3nnn(-c4cccc(CCO)c4)c3n2)cc1 [Compound 259]	< 1e-08	< 1e-08
COCCOc1cccc(-n2nnc3cnc(Nc4ccc(Cl)cc4)nc32)c1 [Compound 335]	1e-08 to 1e-07	1e-08 to 1e-07
COCCOCc1cccc(-n2nnc3cnc(Nc4ccc(CCO)cc4)nc32)c1 [Compound 289]	< 1e-08	< 1e-08
N#CCc1ccc(Nc2ncc3nnn(-c4cccc(F)c4)c3n2)cc1 [Compound 20]	1e-08 to 1e-07	< 1e-08
COCc1cccc(-n2nnc3cnc(Nc4cccc(NC(C)=O)c4)nc32)c1 [Compound 81]	< 1e-08	< 1e-08
COCc1cccc(-n2nnc3cnc(Nc4ccc(OC)nc4)nc32)c1 [Compound 133]	< 1e-08	< 1e-08
CC(C)CC(=O)NCc1cccc(-n2nnc3cnc(Nc4cccc(C(=O)NCCO)c4)nc32)c1 [Compound 186]	1e-08 to 1e-07	< 1e-08
NC(=O)Cc1cccc(-n2nnc3cnc(Nc4ccc(F)cc4)nc32)c1 [Compound 254]	< 1e-08	< 1e-08
NC(=O)c1ccc(Nc2ncc3nnn(-c4cccc(F)c4)c3n2)cc1 [Compound 307]	< 1e-08	< 1e-08
CC(=O)NCc1cccc(Nc2ncc3nnn(-c4cccc(CCO)c4)c3n2)c1 [Compound 167]	< 1e-08	< 1e-08
COCCOc1cccc(-n2nnc3cnc(Nc4ccc(CCN)cc4)nc32)c1 [Compound 319]	1e-08 to 1e-07	1e-08 to 1e-07
O=C(NCc1cccc(-n2nnc3cnc(Nc4ccc(CCO)cc4)nc32)c1)C1CC1 [Compound 208]	< 1e-08	< 1e-08
N#CCc1cccc(-n2nnc3cnc(Nc4ccc(F)cc4)nc32)c1 [Compound 265]	< 1e-08	< 1e-08
N#CCc1cccc(-n2nnc3cnc(Nc4cccc(C#N)c4)nc32)c1 [Compound 272]	< 1e-08	< 1e-08
COc1cccc(-n2nnc3cnc(Nc4ccc(C(=O)O)cc4)nc32)c1 [Compound 246]	< 1e-08	< 1e-08
CC(=O)NCc1cccc(-n2nnc3cnc(Nc4cccc(C#N)c4)nc32)c1 [Compound 107]	< 1e-08	< 1e-08
CN(C)C(=O)c1cccc(Nc2ncc3nnn(-c4cccc(F)c4)c3n2)c1 [Compound 100]	< 1e-08	< 1e-08

Compound	IC50 (GSK3β) [M]	IC50 (GSK3alpha) [M]
OCCc1ccc(Nc2ncc3nnn(-c4cccc(CCO)c4)c3n2)cc1 [Compound 260]	< 1e-08	< 1e-08
COCC(=O)NCc1cccc(-n2nnc3cnc(Nc4cccc(C#N)c4)nc32)c1 [Compound 175]	< 1e-08	< 1e-08
CS(=O)(=O)Nc1cccc(Nc2ncc3nnn(-c4cccc(CC(N)=O)c4)c3n2)c1 [Compound 273]	< 1e-08	< 1e-08
COc1cccc(-n2nnc3cnc(Nc4cccc(NS(C)(=O)=O)c4)nc32)c1 [Compound 52]	< 1e-08	< 1e-08
COCc1cccc(-n2nnc3cnc(Nc4cccc(C#N)c4)nc32)c1 [Compound 97]	< 1e-08	< 1e-08
CNS(=O)(=O)c1cccc(Nc2ncc3nnn(-c4cccc(CNC(C)=O)c4)c3n2)c1 [Compound 140]	< 1e-08	< 1e-08
Fc1cccc(-n2nnc3cnc(Nc4cccc(OC(F)(F)F)c4)nc32)c1 [Compound 22]	< 1e-08	< 1e-08
CC(C)CC(=O)NCc1cccc(-n2nnc3cnc(Nc4ccc(C#N)cc4)nc32)c1 [Compound 190]	1e-08	< 1e-08
CN(C)C(=O)c1ccc(Nc2ncc3nnn(-c4cccc(F)c4)c3n2)cc1 [Compound 309]	< 1e-08	< 1e-08
NCCc1ccc(Nc2ncc3nnn(-c4cccc(F)c4)c3n2)cc1 [Compound 321]	1e-08 to 1e-07	1e-08 to 1e-07
O=C(O)c1cccc(Nc2ncc3nnn(-c4cccc(CO)c4)c3n2)c1 [Compound 68]		1e-08 to 1e-07
COCc1cccc(-n2nnc3cnc(Nc4ccc(CCN)cc4)nc32)c1 [Compound 320]	1e-08 to 1e-07	1e-08 to 1e-07
COCc1cccc(-n2nnc3cnc(Nc4cccc(CCO)c4)nc32)c1 [Compound 151]	< 1e-08	< 1e-08
COCc1cccc(-n2nnc3cnc(Nc4ccc(C(=O)O)cc4)nc32)c1 [Compound 125]	< 1e-08	< 1e-08
N#Cc1cccc(Nc2ncc3nnn(-c4cccc(CCO)c4)c3n2)c1 [Compound 258]	< 1e-08	< 1e-08
OCc1cccc(Nc2ncc3nnn(-c4cccc(F)c4)c3n2)c1 [Compound 31]	< 1e-08	< 1e-08
Nc1cccc(Nc2ncc3nnn(-c4cccc(F)c4)c3n2)c1 [Compound 12]	< 1e-08	1e-08 to 1e-07
COCc1cccc(-n2nnc3cnc(Nc4cccc(C(=O)NCCNC(C)=O)c4)nc32)c1 [Compound 149]	1e-08 to 1e-07	< 1e-08
COCC(=O)NCc1cccc(-n2nnc3cnc(Nc4cccc(NS(C)(=O)=O)c4)nc32)c1 [Compound 158]	< 1e-08	< 1e-08
COCCOCc1cccc(-n2nnc3cnc(Nc4cccc(C#N)c4)nc32)c1 [Compound 290]	< 1e-08	
COc1cccc(-n2nnc3cnc(Nc4cccc(NC(C)=O)c4)nc32)c1 [Compound 42]	< 1e-08	< 1e-08
Fc1cccc(-n2nnc3cnc(Nc4ccc(Cl)nc4)nc32)c1 [Compound 32]	< 1e-08	< 1e-08

Compound	IC50 (GSK3β) [M]	IC50 (GSK3alpha) [M]
CC(=O)NCc1cccc(-n2nnc3cnc(Nc4cccc(C(C)=O)c4)nc32)c1 [Compound 111]	< 1e-08	< 1e-08
NS(=O)(=O)c1ccc(Nc2ncc3nnn(-c4cccc(CNC(=O)C5CC5)c4)c3n2)cc1 [Compound 210]	< 1e-08	< 1e-08
Fc1cccc(Nc2ncc3nnn(-c4cccc(F)c4)c3n2)c1 [Compound 17]	1e-08 to 1e-07	< 1e-08
N#CSc1ccc(Nc2ncc3nnn(-c4cccc(F)c4)c3n2)cc1 [Compound 18]	1e-08 to 1e-07	1e-08 to 1e-07
CN(C)C(=O)c1ccc(Nc2ncc3nnn(-c4cccc(CC#N)c4)c3n2)cc1 [Compound 332]	< 1e-08	< 1e-08
CS(=O)(=O)c1cccc(Nc2ncc3nnn(-c4cccc(F)c4)c3n2)c1 [Compound 44]	< 1e-08	< 1e-08
COCCOc1cccc(Nc2ncc3nnn(-c4cccc(CCO)c4)c3n2)c1 [Compound 262]	< 1e-08	< 1e-08
N#CCc1cccc(-n2nnc3cnc(Nc4ccc(CCN)cc4)nc32)c1 [Compound 317]	< 1e-08	< 1e-08
O=C(O)c1ccc(Nc2ncc3nnn(-c4cccc(CNC(=O)C5CC5)c4)c3n2)cc1 [Compound 206]	< 1e-08	< 1e-08
CCOC(=O)NCc1cccc(-n2nnc3cnc(Nc4ccc(C(N)=O)cc4)nc32)c1 [Compound 218]	< 1e-08	< 1e-08
O=C(NCc1cccc(-n2nnc3cnc(Nc4ccc(CCO)cc4)nc32)c1)C12CC3CC(CC(C3)C1)C2 [Compound 241]	1e-08 to 1e-07	1e-08 to 1e-07
COCc1cccc(-n2nnc3cnc(Nc4cccc(C(C)O)c4)nc32)c1 (centres unmarked) [Compound 143]	< 1e-08	< 1e-08
O=C(NCCO)c1cccc(Nc2ncc3nnn(-c4cccc(F)c4)c3n2)c1 [Compound 101]	< 1e-08	< 1e-08
Oc1cccc(Nc2ncc3nnn(-c4cccc(F)c4)c3n2)c1 [Compound 15]	1e-08	< 1e-08
CC(=O)NCc1cccc(-n2nnc3cnc(Nc4cccc(S(N)(=O)=O)c4)nc32)c1 [Compound 112]	< 1e-08	< 1e-08
CC(=O)Nc1ccc(Nc2ncc3nnn(-c4cccc(F)c4)c3n2)cn1 [Compound 87]	1e-08 to 1e-07	< 1e-08
NC(=O)c1cccc(Nc2ncc3nnn(-c4cccc(C(N)=O)c4)c3n2)c1 [Compound 39]	< 1e-08	< 1e-08
Cn1ccnc1-c1cccc(-n2nnc3cnc(Nc4cccc(C#N)c4)nc32)c1 [Compound 4]	< 1e-08	1e-08 to 1e-07
O=C(O)c1cc(Nc2ncc3nnn(-c4cccc(F)c4)c3n2)ccc1Cl [Compound 70]		1e-08 to 1e-07
O=C(O)Cc1cccc(-n2nnc3cnc(Nc4cccc(C(=O)NCCO)c4)nc32)c1 [Compound 177]		1e-08 to 1e-07
COC(=O)c1cccc(Nc2ncc3nnn(-c4cccc(F)c4)c3n2)c1 [Compound 13]	1e-08 to 1e-07	
